In patent US20230233545A1, “TREATMENT OF ATRIAL DYSFUNCTION” (MyoKardia, Inc., priority 2020, published 2023):

Experiments:
Type in all cases: biochemical, Yucatan mini-pig
[1] = test system: LV (papillary) skinned muscle fibers; experiment: Myocardial force generation, LV skinned muscle fibers (tension-pCa, stiffness); details: at 3 μM
Experimental: The ability of Compound I to increase myocardial force generation at a given Ca2+ concentration was evaluated using LA (n=6) and LV (n=6) skinned muscle fibers prepared from three different Yucatan mini-pig hearts. In short, as previously described, 3 hearts were harvested, rinsed and shipped in cold cardioplegia solution (Custodiol® HTK; Essential Pharmaceuticals, LLC, NC, USA). Upon receipt, LV (papillary) and LA muscle fibers were dissected at 4° C. in a high-relaxing solution (100 mM BES, 10 mM EGTA, 6.57 mM MgCl2, 10 mM creatine phosphate, 6.22 mM ATP, 41.89 mM Kprop, 2.5 μM pepstatin, 1 μM leupeptin, 50 μM PMSF, 5 mM NaN3, pH 7.0). Fiber bundles were cut and skinned (in a high-relaxing solution containing 1% Triton X-100), fitted with aluminum foil t-clips, and mounted on a mechanics apparatus (Aurora Scientific Inc., ON, Canada). Sarcomere length was set to 2.0 μm. Steady-state isometric tension and stiffness (via a 3% stretch over 250 ms) were measured at increasing concentrations of Ca^2+ (pCa 8.0 to 4.5, adjusted to maintain 180 mM ionic strength) twice, first in the absence (control, 1% DMSO) and then in the presence of Compound I (3 μM, 1% DMSO). In all cases, tension values were normalized to the control maximum isometric tension (at pCa 4.5). Active and passive stiffness were calculated by measuring the slope of the early (Ca^2+ dependent) and late phases, respectively, of the tension response to the brief 3% stretches. Data are presented as means (SD) in text or as mean±SEM in figures; EC50 values (and 95% CIs) were calculated using a four-parameter-fit model (GraphPad Prism, GraphPad Software Inc., CA, USA).

[2] = target: left atrial (LA) myofibrils (Sus scrofa, UniProt K7GMH0); experiment: Steady-state ATPase (ATP turnover rate), LA myofibrils
Experimental: The ability of Compound I to increase myocardial ATP turnover rates selectively was evaluated using both left atrial (LA) and left ventricular (LV) myofibrils prepared from Yucatan mini-pig hearts, as well as subfragment-1 (51) myosins from cardiac (recombinant human), skeletal (rabbit psoas) and smooth (chicken gizzard) muscles. Pig hearts were harvested, and the left atria/ventricles were freshly excised, dissected, frozen in liquid nitrogen and stored at −80° C. […] This enzyme system couples the formation of ADP to the oxidation of NADH leading to an absorbance change at 340 nm. […] All measurements were carried out at 25° C. using a plate reader (SpectraMax; Molecular Devices, LLC, CA, USA) to monitor the change in absorbance as a function of time; data were normalized to a per-second scale as described in Green et al., Science (2016) 351(6273):617-21. […]

[3] = target: T1, left ventricular (LV) myofibrils (Sus scrofa, UniProt P79293); experiment: Steady-state ATPase (ATP turnover rate), LV myofibrils
T1 construct: from tissue; host or cells: left ventricle of Yucatan mini-pig heart
Experimental: The ability of Compound I to increase myocardial ATP turnover rates selectively was evaluated using both left atrial (LA) and left ventricular (LV) myofibrils prepared from Yucatan mini-pig hearts, as well as subfragment-1 (51) myosins from cardiac (recombinant human), skeletal (rabbit psoas) and smooth (chicken gizzard) muscles. Pig hearts were harvested, and the left atria/ventricles were freshly excised, dissected, frozen in liquid nitrogen and stored at −80° C. Myofibrils and S1 myosins were prepared as described in Kawas et al., J Biol Chem. (2017) 292(40:16571-7. Both atrial (n=4 hearts, 2 replicates each) and ventricular (n=3 hearts, 2 replicates each) myofibrils were assayed at a constant concentration of 1.0 mg/mL (at Ca^2+ sensitivity [pCa] 6.0). Rabbit skeletal (0.2 μM, n=8), chicken gizzard (0.5 n=10) and recombinant human cardiac (0.5 n=10) S1 myosin were assayed with a constant concentration of actin (14 μM).
Steady-state ATPase measurements at varying concentrations of Compound I (0-50 μM, in 2% DMSO) were conducted using a coupled enzyme system utilizing pyruvate kinase and lactate dehydrogenase. This enzyme system couples the formation of ADP to the oxidation of NADH leading to an absorbance change at 340 nm. The buffering system used in all experiments was 12 mM PIPES, 2 mM MgCl2 and 1 mM dithiothreitol (DTT) at pH 6.8 (PM12 buffer). All measurements were carried out at 25° C. using a plate reader (SpectraMax; Molecular Devices, LLC, CA, USA) to monitor the change in absorbance as a function of time; data were normalized to a per-second scale as described in Green et al., Science (2016) 351(6273):617-21. Data are presented as means (standard deviation [SD]) in text or as mean±standard error of the mean (SEM) in figures; half maximal effective concentration (EC50) values (and 95% confidence intervals [CIs]) were calculated using a four-parameter-fit model (GraphPad Prism, GraphPad Software Inc., CA, USA).

T1 sequence (P79293 whole entry): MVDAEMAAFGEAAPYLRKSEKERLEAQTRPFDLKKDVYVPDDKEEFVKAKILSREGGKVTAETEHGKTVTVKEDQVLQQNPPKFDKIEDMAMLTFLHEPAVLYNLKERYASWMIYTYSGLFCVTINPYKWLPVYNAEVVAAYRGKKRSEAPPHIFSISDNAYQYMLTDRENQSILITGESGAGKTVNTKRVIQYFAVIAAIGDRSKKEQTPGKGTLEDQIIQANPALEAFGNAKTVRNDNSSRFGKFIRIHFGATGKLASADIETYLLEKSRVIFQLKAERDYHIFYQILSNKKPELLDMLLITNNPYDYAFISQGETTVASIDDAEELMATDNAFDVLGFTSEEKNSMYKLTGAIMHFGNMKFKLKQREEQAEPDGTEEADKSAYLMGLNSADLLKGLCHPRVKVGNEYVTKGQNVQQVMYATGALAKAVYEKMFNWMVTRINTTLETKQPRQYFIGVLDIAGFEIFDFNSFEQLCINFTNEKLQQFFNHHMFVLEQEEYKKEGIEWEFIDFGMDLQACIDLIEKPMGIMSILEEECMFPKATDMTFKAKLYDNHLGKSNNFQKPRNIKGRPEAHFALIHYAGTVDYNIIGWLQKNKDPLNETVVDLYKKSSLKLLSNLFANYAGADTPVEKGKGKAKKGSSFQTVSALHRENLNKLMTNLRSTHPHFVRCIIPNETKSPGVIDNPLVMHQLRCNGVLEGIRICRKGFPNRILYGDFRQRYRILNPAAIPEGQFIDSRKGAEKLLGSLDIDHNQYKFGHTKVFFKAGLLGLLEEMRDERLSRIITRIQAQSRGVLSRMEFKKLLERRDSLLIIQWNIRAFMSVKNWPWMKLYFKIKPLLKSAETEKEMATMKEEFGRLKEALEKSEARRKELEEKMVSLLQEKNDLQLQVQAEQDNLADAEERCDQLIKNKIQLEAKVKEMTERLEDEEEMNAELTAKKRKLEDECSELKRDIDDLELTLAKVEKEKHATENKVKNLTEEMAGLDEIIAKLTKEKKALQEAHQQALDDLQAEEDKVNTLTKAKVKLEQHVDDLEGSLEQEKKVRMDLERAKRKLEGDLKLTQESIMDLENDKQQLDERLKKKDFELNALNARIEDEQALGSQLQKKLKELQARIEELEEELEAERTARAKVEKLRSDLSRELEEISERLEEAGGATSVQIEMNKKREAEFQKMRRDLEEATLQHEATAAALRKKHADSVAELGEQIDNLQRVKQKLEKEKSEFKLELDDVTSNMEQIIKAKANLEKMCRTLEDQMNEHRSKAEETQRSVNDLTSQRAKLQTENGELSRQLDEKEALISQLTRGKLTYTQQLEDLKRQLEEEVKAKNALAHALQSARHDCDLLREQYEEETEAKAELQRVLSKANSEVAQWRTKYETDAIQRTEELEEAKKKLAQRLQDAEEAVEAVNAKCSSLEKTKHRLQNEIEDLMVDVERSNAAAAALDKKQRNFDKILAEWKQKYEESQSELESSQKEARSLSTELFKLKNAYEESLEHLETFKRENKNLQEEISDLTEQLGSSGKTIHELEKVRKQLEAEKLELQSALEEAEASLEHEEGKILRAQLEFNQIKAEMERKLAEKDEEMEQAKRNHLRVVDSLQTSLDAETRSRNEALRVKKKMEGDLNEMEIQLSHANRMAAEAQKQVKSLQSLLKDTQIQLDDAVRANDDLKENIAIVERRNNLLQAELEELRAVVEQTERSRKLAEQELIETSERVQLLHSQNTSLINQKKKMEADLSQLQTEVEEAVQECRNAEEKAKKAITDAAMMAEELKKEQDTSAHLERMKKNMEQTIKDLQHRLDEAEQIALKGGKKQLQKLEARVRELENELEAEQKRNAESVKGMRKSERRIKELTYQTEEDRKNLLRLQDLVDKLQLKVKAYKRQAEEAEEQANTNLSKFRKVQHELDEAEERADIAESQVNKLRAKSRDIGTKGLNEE
Sequence of left atrial (LA) myofibrils (F1SSF9 2-175): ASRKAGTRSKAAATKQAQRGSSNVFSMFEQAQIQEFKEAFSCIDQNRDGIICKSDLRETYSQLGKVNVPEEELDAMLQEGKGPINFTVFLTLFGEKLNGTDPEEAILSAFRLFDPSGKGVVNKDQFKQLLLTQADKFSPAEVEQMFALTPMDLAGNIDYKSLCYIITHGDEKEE
Sequence of left atrial (LA) myofibrils (K7GMH0 entry or part of it): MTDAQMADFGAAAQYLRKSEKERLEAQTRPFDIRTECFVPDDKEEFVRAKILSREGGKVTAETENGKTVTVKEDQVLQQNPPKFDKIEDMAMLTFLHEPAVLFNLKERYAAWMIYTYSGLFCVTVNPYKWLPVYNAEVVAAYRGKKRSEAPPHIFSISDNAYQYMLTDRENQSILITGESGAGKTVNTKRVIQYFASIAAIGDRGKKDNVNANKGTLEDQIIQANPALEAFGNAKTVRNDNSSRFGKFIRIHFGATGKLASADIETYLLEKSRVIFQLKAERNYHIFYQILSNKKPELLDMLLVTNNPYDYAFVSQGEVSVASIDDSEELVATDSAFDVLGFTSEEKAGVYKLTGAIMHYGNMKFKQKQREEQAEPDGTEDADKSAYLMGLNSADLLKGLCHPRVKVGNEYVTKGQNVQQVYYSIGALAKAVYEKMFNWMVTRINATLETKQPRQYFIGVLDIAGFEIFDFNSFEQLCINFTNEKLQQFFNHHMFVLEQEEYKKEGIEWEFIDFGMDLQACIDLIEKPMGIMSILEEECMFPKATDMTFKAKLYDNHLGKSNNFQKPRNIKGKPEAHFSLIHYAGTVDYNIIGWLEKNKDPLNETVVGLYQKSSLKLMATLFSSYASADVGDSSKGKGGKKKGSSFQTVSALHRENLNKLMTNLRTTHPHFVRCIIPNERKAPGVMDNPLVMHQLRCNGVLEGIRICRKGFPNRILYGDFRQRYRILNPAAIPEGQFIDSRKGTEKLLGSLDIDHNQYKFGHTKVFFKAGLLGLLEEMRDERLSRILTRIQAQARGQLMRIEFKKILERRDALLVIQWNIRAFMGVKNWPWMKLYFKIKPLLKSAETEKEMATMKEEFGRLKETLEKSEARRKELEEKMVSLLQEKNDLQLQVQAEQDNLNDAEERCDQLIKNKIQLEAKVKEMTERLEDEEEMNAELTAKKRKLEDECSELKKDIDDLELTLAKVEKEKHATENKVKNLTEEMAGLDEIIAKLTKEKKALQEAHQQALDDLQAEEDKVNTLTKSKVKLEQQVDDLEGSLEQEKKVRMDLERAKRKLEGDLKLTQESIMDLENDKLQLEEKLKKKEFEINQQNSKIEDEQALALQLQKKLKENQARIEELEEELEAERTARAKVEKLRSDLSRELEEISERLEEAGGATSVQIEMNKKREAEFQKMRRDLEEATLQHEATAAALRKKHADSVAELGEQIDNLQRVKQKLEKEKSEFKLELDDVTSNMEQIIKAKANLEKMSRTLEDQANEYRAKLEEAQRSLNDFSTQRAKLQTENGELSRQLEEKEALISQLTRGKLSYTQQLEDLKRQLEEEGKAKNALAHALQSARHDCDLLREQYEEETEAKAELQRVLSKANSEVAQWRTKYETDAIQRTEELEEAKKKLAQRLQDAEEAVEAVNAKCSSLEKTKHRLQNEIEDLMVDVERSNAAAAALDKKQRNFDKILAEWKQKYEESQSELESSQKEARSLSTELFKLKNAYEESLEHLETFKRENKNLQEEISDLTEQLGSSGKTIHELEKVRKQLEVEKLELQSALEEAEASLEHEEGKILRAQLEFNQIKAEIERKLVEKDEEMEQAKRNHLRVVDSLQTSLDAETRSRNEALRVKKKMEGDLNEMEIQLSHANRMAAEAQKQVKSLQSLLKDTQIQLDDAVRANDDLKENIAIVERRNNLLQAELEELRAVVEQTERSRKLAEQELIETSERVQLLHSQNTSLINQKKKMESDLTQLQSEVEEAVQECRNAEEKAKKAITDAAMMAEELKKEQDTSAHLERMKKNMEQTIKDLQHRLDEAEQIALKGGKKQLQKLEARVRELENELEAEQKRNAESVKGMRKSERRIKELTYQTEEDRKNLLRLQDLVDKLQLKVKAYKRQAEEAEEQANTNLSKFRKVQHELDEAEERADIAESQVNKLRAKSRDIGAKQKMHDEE
Sequence of left atrial (LA) myofibrils (F1RRT2 2-197, further chain): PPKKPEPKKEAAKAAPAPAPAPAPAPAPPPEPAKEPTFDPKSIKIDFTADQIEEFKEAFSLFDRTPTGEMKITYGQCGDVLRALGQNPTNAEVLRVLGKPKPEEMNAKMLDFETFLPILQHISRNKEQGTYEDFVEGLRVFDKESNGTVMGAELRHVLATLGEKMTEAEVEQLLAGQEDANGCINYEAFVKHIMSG

## Cn1cc(S(=O)(=O)[C@@](C)(F)C2CCN(C(=O)Nc3ccon3)CC2)c(C(F)F)n1 [Compound I, (R)-4-(1-((3-(difluoromethyl)-1-methyl-1H-pyrazol-4-yl)sulfonyl)-1-fluoroethyl)-N-(isoxazol-3-yl)piperidine-1-carboxamide]
[1]
  passive stiffness, ventricular skinned fibers: without altering passive stiffness
[1]; pCa 6.0
  increase in LV tension: 43%
[1]; data not shown
  maximal force-generation capability, ventricular skinned fibers: without altering
[2]; at 3 μM, read-out: increase in ATPase, LA porcine myofibrils
  activation at 3 µM: 56%
[2]; at 50 μM, SD ±0.3, read-out: increase in ATPase turnover rate, atrial myofibrils
  fold induction at 50 µM: 2.3
[3]; at 3 μM
  increase in ATPase, LV porcine myofibrils: 85%
[3]; at 50 μM, SD ±0.3
  increase in ATPase turnover rate, ventricular myofibrils: 3.0 fold
[3]; pCa 6.0, 25° C., 95% CI 3.7-27.5, read-out: half maximal active concentration [AC50], ATPase turnover rate, ventricular myofibrils
  AC50: 6 µM
